Measured values: US7230143B2, “Chromatographic method for the analysis of both in process and finished sevoflurane” (Halocarbon Products Corporation, priority 2004, dated 2007)

Test: Partition of sevoflurane and HFIP in solvent/HF system
Type: physicochemical
Settings: equal volumes, 25 C, fraction of original compound found in the solvent, by gas chromatography; for Partition Coefficients of Sevoflurane and HFIP in solvent/HF system: 1,2,3-trichloropropane: solvent 1,2,3-trichloropropane / HF; for Partition Coefficients of Sevoflurane and HFIP in solvent/HF system: HC-0.8 oil: solvent HC-0.8 oil (mixture of tetrachlorobutanes) / HF; for Partition Coefficients of Sevoflurane and HFIP in solvent/HF system: Krytox: solvent Krytox (1:1 mixture of DuPont Krytox GLP 100 and K6) / HF
Procedure: The partitions of sevoflurane and of HFIP in solvent/HF system were measured by mixing a small amount of either sevoflurane or HFIP with a two-layer mixture of equal volumes of a particular solvent and HF at 25 C. After enough mixing to reach equilibrium, the fraction of original compound found in the solvent was determined by gas chromatography and quantified using standards.

SMILES | Partition Coefficients of Sevoflurane and HFIP in solvent/HF system: 1,2,3-trichloropropane | Partition Coefficients of Sevoflurane and HFIP in solvent/HF system: HC-0.8 oil | Partition Coefficients of Sevoflurane and HFIP in solvent/HF system: Krytox | Partition Coefficients of Sevoflurane and HFIP in solvent/HF system: Isooctane | Partition Coefficients of Sevoflurane and HFIP in solvent/HF system: Perfluoromethyldecalin
OC(C(F)(F)F)C(F)(F)F [HFIP, 1,1,1,3,3,3-hexafluoro-2-propanol] | <0.005 | 0.01 | <0.005 | <0.005 | <0.005
FCOC(C(F)(F)F)C(F)(F)F [Sevoflurane, fluoromethyl 2,2,2-trifluoro-1-(trifluoromethyl)ethyl ether] | 0.45 | 1.00 | 0.32 | 0.30 | 0.22
